One assay concerns adrenergic α1 receptor. The assay can be described thus: Binding assay α1 (non-selective), [3H]prazosin, rat cerebral cortex. To be noted: percent inhibition of control specific binding; compounds tested at 1×10^−6 M. In short, it runs like this:
(§1)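 Detection relied on scintillation counting of bound ligand. Compounds at 1×10^−6 M were evaluated against specific binding, i.e. total binding corrected for the nonspecific fraction seen with excess unlabelled ligand.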

The target in assay [1] is T1, serotoninergic 5-HT2A receptor (Homo sapiens, UniProt P28223). Briefly: Cellular functional assay, serotoninergic 5-HT2A receptor (agonism/antagonism). To be noted: for activation at 1 µM: read-out: 5-HT2A -ag [%]; for inhibition at 1 µM: read-out: 5-HT2A -antag [%]. The assay is classed as cell-based. In short, it runs like this: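 Human receptors tested in cell-based functional format for both agonist and antagonist modes. Single compound concentration of 1×10^−6M.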
T1 sequence (P28223 whole entry): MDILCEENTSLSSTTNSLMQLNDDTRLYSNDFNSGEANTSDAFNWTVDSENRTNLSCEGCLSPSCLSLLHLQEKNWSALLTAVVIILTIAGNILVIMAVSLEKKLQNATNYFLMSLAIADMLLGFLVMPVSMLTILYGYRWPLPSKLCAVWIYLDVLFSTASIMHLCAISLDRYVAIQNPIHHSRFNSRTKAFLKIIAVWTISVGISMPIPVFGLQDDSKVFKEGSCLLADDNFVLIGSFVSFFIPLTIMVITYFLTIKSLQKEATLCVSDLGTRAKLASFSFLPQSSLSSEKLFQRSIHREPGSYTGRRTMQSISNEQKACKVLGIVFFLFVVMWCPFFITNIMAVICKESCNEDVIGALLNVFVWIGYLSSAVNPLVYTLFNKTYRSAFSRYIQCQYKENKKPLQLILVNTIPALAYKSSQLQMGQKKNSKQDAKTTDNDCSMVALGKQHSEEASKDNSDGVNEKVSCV

Another assay deals with dopaminergic D2 receptor (Homo sapiens, UniProt P14416). Briefly: Cellular functional assay, dopaminergic D2 receptor (agonism/antagonism). The class given is cell-based. To be noted: HEK293; for activation at 1 µM: agonist effect, percent of control specific agonist response (3 μM dopamine for control), 1×10^−6 M, D2S (h), HEK-293 cells, read-out: D2-ag [%]; for inhibition at 1 µM: read-out: D2-antag. [%]. As to the method:
(§2) The compounds were tested at the concentration of 1×10^−6M.
(§3) In the Tables ag refers to agonism, and antag to antagonism).

In assay [2] the target is T1, serotoninergic 5-HT2A receptor. The assay can be described thus: Binding assay 5-HT2A (h), [3H]ketanserin, HEK-293 cells. More on the design: expressed in transfected cells; host or cells: HEK-293 cells. To be noted: read-out: 5-HT2A. The procedure, abridged:
as §1

The target in the next assay is dopaminergic D3 receptor (Homo sapiens, UniProt P35462). The assay can be described thus: Binding assay D3 (h), [3H]methyl-spiperone, CHO cells. More on the design: expressed in transfected cells; host or cells: CHO cells. To be noted: read-out: D3 [%]. The procedure, abridged: as §1
Chain of dopaminergic D3 receptor (P35462 whole entry): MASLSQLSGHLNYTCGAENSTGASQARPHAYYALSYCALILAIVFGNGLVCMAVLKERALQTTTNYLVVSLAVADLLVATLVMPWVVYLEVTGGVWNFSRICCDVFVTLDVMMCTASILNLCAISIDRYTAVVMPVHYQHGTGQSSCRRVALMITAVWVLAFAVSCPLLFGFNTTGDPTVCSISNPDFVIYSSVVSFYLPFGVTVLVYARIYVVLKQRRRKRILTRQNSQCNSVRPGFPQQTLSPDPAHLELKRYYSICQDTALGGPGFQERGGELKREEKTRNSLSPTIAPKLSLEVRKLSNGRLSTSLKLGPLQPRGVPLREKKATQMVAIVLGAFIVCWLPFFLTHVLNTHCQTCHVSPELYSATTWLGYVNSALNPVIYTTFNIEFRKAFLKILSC
The target in assay [3] is histaminergic H1 receptor (Homo sapiens, UniProt P35367). Briefly: Cellular functional assay, histaminergic H1 receptor (agonism/antagonism). The class given is cell-based. To be noted: for activation at 1 µM: agonist effect, percent of control specific agonist response, compounds tested at 1×10^−6M, read-out: H1 -ag [%]; for inhibition at 1 µM: read-out: H1 -antag. [%]. The procedure: as §2, §3
Chain of histaminergic H1 receptor (P35367 whole entry): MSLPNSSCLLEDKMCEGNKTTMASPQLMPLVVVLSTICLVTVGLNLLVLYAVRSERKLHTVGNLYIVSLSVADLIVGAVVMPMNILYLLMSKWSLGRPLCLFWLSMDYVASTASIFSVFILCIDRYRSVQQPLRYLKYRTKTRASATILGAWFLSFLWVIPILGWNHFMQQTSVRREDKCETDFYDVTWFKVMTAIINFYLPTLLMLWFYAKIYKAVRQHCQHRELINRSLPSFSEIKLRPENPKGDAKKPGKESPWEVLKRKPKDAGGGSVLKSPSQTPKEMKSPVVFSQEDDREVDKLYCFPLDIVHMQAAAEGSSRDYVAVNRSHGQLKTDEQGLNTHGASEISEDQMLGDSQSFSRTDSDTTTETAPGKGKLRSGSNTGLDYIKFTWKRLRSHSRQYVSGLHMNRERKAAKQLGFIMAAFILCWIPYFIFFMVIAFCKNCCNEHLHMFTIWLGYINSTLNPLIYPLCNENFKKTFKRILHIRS

The target in assay [4] is T2, serotoninergic 5-HT1A receptor (Homo sapiens, UniProt P08908).
T2 sequence (P08908 1-422): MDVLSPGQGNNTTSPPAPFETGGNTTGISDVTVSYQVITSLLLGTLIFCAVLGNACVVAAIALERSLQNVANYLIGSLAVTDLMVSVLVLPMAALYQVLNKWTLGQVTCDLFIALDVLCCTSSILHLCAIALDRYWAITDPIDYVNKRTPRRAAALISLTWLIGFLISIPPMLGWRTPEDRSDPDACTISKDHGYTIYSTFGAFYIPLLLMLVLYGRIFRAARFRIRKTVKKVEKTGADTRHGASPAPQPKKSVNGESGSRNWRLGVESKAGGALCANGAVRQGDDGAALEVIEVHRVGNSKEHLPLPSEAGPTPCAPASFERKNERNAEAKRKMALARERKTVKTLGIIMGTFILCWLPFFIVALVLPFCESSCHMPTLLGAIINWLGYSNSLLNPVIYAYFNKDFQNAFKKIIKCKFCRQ
Briefly: Binding assay 5-HT1A (h), [3H]8-OH-DPAT, HEK-293 cells. More on the design: expressed in transfected cells; host or cells: HEK-293 cells. To be noted: read-out: 5-HT1A. In short, it runs like this:
as §1

Another assay deals with sigma σ receptor. Briefly: Binding assay σ (non-selective), [3H]DTG, rat cerebral cortex. To be noted: percent inhibition of control specific binding; compounds tested at 1×10^−6 M. In short, it runs like this: as §1
Assay [5] has as its target T3, serotoninergic receptor 5-HT2C (Homo sapiens, UniProt P28335).
T3 construct: expressed in transfected cells; host or cells: HEK-293 cells
T3 sequence (P28335 33-458): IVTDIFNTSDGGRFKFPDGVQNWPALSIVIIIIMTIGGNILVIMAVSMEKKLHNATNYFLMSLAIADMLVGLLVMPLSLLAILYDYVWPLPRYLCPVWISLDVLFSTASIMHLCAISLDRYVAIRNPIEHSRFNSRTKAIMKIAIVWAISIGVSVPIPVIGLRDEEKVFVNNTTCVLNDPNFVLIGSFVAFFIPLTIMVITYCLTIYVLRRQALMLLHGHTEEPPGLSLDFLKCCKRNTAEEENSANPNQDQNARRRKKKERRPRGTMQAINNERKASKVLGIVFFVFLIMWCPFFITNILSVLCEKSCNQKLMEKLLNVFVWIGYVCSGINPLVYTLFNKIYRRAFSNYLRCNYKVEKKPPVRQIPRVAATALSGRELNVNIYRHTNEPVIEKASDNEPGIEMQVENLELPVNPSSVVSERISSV
The assay can be described thus: Binding assay 5-HT2C (h), [3H]mesulergine, HEK-293 cells. To be noted: read-out: 5-HT2C [%]. In short, it runs like this:
as §1

Assay [6] deals with serotoninergic 5-HT7 receptor (Homo sapiens, UniProt P34969). The assay can be described thus: Cellular functional assay, serotoninergic 5-HT7 receptor (agonism/antagonism). The class given is cell-based. To be noted: for activation at 1 µM: agonist effect, percent of control specific agonist response, compounds tested at 1×10^−6M, read-out: 5-HT7-ag [%]; for inhibition at 1 µM: read-out: 5-HT7-antag. [%]. As to the method:
as §2, §3

Another assay concerns the target T4, adrenergic α2C receptor (Homo sapiens, UniProt P18825).
T4 sequence (P18825 1-462): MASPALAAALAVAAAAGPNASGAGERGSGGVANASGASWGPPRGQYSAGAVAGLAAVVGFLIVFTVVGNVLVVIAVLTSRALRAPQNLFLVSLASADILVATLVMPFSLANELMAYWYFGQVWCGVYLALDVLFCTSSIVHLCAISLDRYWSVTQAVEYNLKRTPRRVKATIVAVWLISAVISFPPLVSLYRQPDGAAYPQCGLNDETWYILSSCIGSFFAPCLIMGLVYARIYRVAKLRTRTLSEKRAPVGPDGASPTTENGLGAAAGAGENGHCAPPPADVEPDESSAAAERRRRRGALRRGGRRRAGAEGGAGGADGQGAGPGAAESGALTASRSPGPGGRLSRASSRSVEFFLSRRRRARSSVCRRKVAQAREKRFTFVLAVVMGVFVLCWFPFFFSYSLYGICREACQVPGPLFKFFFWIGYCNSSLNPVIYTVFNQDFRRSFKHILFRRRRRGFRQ
The assay can be described thus: Binding assay α2C (h), [3H]RX 821002, CHO cells. More on the design: expressed in transfected cells; host or cells: CHO cells. The following applies: read-out: α2C [%]. In short, it runs like this: as §1

The structures appear in SMILES notation.

Chain of serotoninergic 5-HT7 receptor (P34969 whole entry): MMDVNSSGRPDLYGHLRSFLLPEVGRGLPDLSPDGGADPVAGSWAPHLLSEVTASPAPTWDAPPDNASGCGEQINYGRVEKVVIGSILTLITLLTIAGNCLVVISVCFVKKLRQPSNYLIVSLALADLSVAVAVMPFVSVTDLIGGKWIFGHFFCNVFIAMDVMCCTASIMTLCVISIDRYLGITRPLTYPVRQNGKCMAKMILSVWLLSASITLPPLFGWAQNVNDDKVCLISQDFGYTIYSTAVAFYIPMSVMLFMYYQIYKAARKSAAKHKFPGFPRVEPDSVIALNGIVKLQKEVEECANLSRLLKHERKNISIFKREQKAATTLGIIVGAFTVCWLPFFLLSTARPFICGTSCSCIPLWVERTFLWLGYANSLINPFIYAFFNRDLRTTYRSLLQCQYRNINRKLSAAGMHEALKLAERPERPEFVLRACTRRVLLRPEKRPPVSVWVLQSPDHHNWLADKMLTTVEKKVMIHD
Chain of dopaminergic D2 receptor (P14416 whole entry): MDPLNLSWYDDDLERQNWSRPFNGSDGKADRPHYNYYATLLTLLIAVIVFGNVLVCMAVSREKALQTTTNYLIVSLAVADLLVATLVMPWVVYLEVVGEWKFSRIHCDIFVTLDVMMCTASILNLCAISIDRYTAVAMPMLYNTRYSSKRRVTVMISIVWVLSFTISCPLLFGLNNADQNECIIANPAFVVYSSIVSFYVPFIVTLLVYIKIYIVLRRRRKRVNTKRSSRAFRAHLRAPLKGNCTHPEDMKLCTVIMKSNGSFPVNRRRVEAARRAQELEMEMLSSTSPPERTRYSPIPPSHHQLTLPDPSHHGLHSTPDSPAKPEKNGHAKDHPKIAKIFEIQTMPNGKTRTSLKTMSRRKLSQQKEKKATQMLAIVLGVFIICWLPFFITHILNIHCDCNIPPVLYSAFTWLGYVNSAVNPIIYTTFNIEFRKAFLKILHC

Consider `Cc1c(S(=O)(=O)NCCCCN2CCN(c3nsc4ccccc34)CC2)sc2ccc(F)cc12` [Compound 65, N-[4-[4-(1,2-Benzothiazol-3-yl)piperazin-1-yl]butyl]-5-fluoro-3-methylbenzothiophene-2-sulphonamide], for which the “α1 [%]” value with adrenergic α1 receptor turned out to be 95%. The activation at 1 µM in assay [1] is -2%; at dopaminergic D2 receptor it was 10%; in assay [3], 0%; in assay [6], -2%. Also, the inhibition at 1 µM amounted to 98% in assay [1]; 74% at dopaminergic D2 receptor; 101% in assay [2]; 74% at dopaminergic D3 receptor; 60% in assay [3]; 100% in [4]. Further, the inhibition at 1 µM in [5] stood at 95%; in [6], 91%; at adrenergic α2C receptor it was 104%. The “σ [%]” value in the assay on sigma σ receptor worked out at 62%.

Consider `N#Cc1cccc(S(=O)(=O)NCCCN2CCC(c3noc4cc(F)ccc34)CC2)c1` [Compound 338, 3-cyano-N-[3-[4-(6-fluoro-1,2-benzoxazol-3-yl)piperidin-1-yl]propyl]benzenesulphonamide], for which, in the assay on adrenergic α1 receptor, the “α1 [%]” value is given as 99%. Further, the activation at 1 µM in assay [1] is -1%; at dopaminergic D2 receptor it was 3%; in [3], 1%; in [6] it was -3%. The inhibition at 1 µM in assay [1] is 100%; at dopaminergic D2 receptor, 88%; in assay [2] it was 102%; on dopaminergic D3 receptor, 100%; in [3] it was 51%; in [4], 80%. Further, the values for the inhibition at 1 µM (in assay [5]; in assay [6]; on adrenergic α2C receptor) were 76%, 100% and 104%, respectively. Further, the “σ [%]” value in the assay on sigma σ receptor was 72%.

Consider `O=S(=O)(NCCCCN1CCN(c2nsc3ccccc23)CC1)c1csc2ccccc12` [Compound 240, N-[4-[4-(1,2-Benzothiazol-3-yl)piperazin-1-yl]butyl]benzothiophene-3-sulphonamide], for which the “α1 [%]” value in the assay with adrenergic α1 receptor is recorded as 96%. Further, the activation at 1 µM was -3% in assay [1], 3% on dopaminergic D2 receptor, 0% in [3] and -2% in assay [6]. Besides, the inhibition at 1 µM in [1] stood at 93%; on dopaminergic D2 receptor, 83%; in assay [2], 101%; on dopaminergic D3 receptor, 99%; in [3], 69%; in assay [4], 98%. Moreover, the inhibition at 1 µM came out at 78% in assay [5], 98% in assay [6] and 100% on adrenergic α2C receptor. Moreover, the “σ [%]” value in the assay on sigma σ receptor was 44%.

In the case of `O=S(=O)(NCCCCN1CCN(c2nsc3ccccc23)CC1)c1ccc2cc(Cl)ccc2c1` [Compound 61, N-[4-[4-(1,2-Benzothiazol-3-yl)piperazin-1-yl]butyl]-6-chloro-naphthalene-2-sulphonamide], the “α1 [%]” value with adrenergic α1 receptor stood at 94%. Besides, the activation at 1 µM in [1] was 0%; at dopaminergic D2 receptor it was 4%; in [3], 1%; in [6], -1%. Moreover, the inhibition at 1 µM came out at 97% in [1]; 77% at dopaminergic D2 receptor; 100% in [2]; 96% on dopaminergic D3 receptor; 76% in assay [3]; 94% in [4]. In addition, the inhibition at 1 µM in [5] was 95%; in assay [6], 78%; on adrenergic α2C receptor, 101%. In addition, the “σ [%]” value with sigma σ receptor turned out to be 46%.

Consider `O=S(=O)(NCCCCN1CCC(c2noc3cc(F)ccc23)CC1)c1ccc(Br)cc1` [Compound 298, 4-Bromo-N-[4-[4-(6-fluoro-1,2-benzoxazol-3-yl)piperidin-1-yl]butyl]benzenesulphonamide], for which the “α1 [%]” value in the assay with adrenergic α1 receptor is reported as 103%. Further, the activation at 1 µM is -1% in assay [1], 12% at dopaminergic D2 receptor, 30% in assay [3] and -3% in assay [6]. Also, the inhibition at 1 µM turned out to be 99% in assay [1]; 84% at dopaminergic D2 receptor; 100% in assay [2]; 98% at dopaminergic D3 receptor; 90% in assay [3]; 67% in [4]. For the same compound, the inhibition at 1 µM amounted to 52% in assay [5], 98% in assay [6] and 98% on adrenergic α2C receptor. In the assay on sigma σ receptor, the “σ [%]” value was found to be 68%.

In the case of `Cc1c(S(=O)(=O)NCCCCN2CCN(c3noc4ccccc34)CC2)sc2ccc(F)cc12` [Compound 81, N-[4-[4-(1,2-Benzoxazol-3-yl)piperazin-1-yl]butyl]-5-fluoro-3-methylbenzothiophene-2-sulphonamide], the “α1 [%]” value in the assay with adrenergic α1 receptor is 96%. Besides, the activation at 1 µM in assay [1] was -1%; on dopaminergic D2 receptor, 4%; in assay [3], 1%; in assay [6], -2%. For the same compound, the inhibition at 1 µM in assay [1] was 95%; on dopaminergic D2 receptor, 73%; in assay [2], 101%; at dopaminergic D3 receptor, 97%; in assay [3] it was 38%; in assay [4], 92%. The inhibition at 1 µM in assay [5] was determined as 50%; in assay [6] it was 98%; at adrenergic α2C receptor, 106%. Besides, in the assay with sigma σ receptor, the “σ [%]” value is 59%.

Turning to `O=c1[nH]c2ccc(S(=O)(=O)NCCCN3CCN(c4nsc5ccccc45)CC3)cc2o1` [Compound 8, N-(3-(4-(1,2-Benzothiazol-3-yl)piperazin-1-yl)propyl)-2-oxo-3H-1,3-benzoxazole-6-sulphonamide], the “α1 [%]” value in the assay on adrenergic α1 receptor was found to be 94%. Further, the activation at 1 µM in assay [1] was -2%; on dopaminergic D2 receptor, 7%; in assay [3] it was 1%; in assay [6], -1%. In addition, the inhibition at 1 µM in assay [1] stood at 99%; at dopaminergic D2 receptor, 85%; in assay [2], 100%; at dopaminergic D3 receptor it was 97%; in assay [3], 98%; in assay [4], 100%. For the same compound, the inhibition at 1 µM in [5] was 90%; in assay [6], 82%; at adrenergic α2C receptor it was 93%. In addition, the “σ [%]” value in the assay on sigma σ receptor stood at 17%.

Values taken from US8822517B2, “Arylosulfonamides for the treatment of CNS diseases” (Adamed SP. Z O.O., priority 2010, dated 2014).
